Here are results for 51 molecules from PubChem BioAssay AID1949 (Southern Research Institute, 2009).

Each structure is given as a SMILES string. In brackets after ≈: the same amount, converted by molar mass. Inconclusive results are not listed. Activity calls are given as the source filed them. How the calls were made is not given here.

The test system of the assay is M. tuberculosis H37Rv growth inhibition. The experiment in a line: Mycobacterium tuberculosis H37Rv growth inhibition, cell based, confirmatory dose response (AID 1949).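 Further: bacteria grown 7 days with compound before Alamar blue readout.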
A word on the IC50: it is the concentration that gives 50% inhibition. Regarding `CC1=NN(c2nc(-c3ccc(Cl)cc3)cs2)C(=O)C1C` (stereo unspecified), the IC50 is 2.07 µg/mL (≈ 6.77 µM). Consider `Cc1cnc(NC(=O)CSc2ccc(Cl)cc2)s1`, for which the IC50 was 1.67 µg/mL (≈ 5.59 µM). For the molecule `O=C1c2cccc3cc([N+](=O)[O-])cc(c23)C(=O)N1CCO`, the IC50 was > 50 µg/mL (inactive).

As to `CCCC(=O)NC(=S)Nc1ccc(N2CCN(C(=O)c3cccs3)CC2)c(Cl)c1`, the IC50 is 0.61 µg/mL (≈ 1.35 µM). Turning to `CCC(=O)NC(=S)Nc1ccc(C(C)C)cc1`, the IC50 was less than 0.1 µg/mL. The result for `CCc1cccc(OCC(=O)Nc2ccc([N+](=O)[O-])cc2)c1` reads 11.7 µg/mL (≈ 39.1 µM). In the case of `COCCNCCCCOc1ccc(Cl)cc1C(C)(C)C` it was 4.62 µg/mL (≈ 14.7 µM); in that of `Cc1cc(-c2csc(Nc3ccc(S(N)(=O)=O)cc3)n2)ccc1F`, 2.34 µg/mL (≈ 6.44 µM). In the case of `CCN(CC)S(=O)(=O)c1ccc(Cl)c(C(=O)Oc2cccc3cccnc23)c1` it was 2.45 µg/mL (≈ 5.85 µM); in that of `O=C(CC12CC3CC(CC(C3)C1)C2)Nc1cccc(C(F)(F)F)c1`, 0.97 µg/mL (≈ 2.88 µM); in that of `O=C(/C=C/c1cc([N+](=O)[O-])ccc1O)c1ccc(Cl)cc1`, 1.24 µg/mL (≈ 4.08 µM). As to `COc1ccccc1C(=O)Oc1ccc2c(c1)C(C)CC(C)(C)N2` (stereo unspecified), the IC50 is 4.97 µg/mL (≈ 15.3 µM).

Turning to `C/C(=N/N=C1\NC(=O)C(Cc2ccc(F)cc2)S1)c1ccc(C)cc1` (stereo unspecified), the IC50 was > 50 µg/mL (inactive). `Cc1ccc(S(=O)(=O)Nc2ccc(NC(=O)Nc3cccc(C(F)(F)F)c3)cc2)cc1`: the IC50 is 1.13 µg/mL (≈ 2.51 µM). The result for `COc1ccccc1C(=O)NNC(=S)NC(=O)C1CCCCC1` reads 3.02 µg/mL (≈ 9 µM).

As for `CC(C)OC(=O)c1c2c(n3ccccc13)C(=O)c1ccccc1C2=O`, the IC50 is 11.4 µg/mL (≈ 34.2 µM).

Turning to `O=C(NC1CCCCC1)c1cccc(N2C(=O)c3cccc4c([N+](=O)[O-])ccc(c34)C2=O)c1`, the IC50 is 0.39 µg/mL (≈ 0.879 µM). In the case of `COc1cccc(C(=O)OCc2cccc(C(=O)Oc3ccccc3)c2)c1` it was 9.15 µg/mL (≈ 25.2 µM); in that of `CCOC(=O)C1=CN(C(C)C)C=C(C(=O)OCC)C1c1cc(OC)ccc1OC`, > 50 µg/mL (inactive); in that of `CCn1cc(C(=O)O)c(=O)c2cc(F)c(N3CCN(C(=S)Nc4cc(C(F)(F)F)ccc4Cl)CC3)cc21`, 2.99 µg/mL (≈ 5.37 µM). In the case of `Cc1ccccc1OCCCCn1cnc2ccccc21` it was 6.34 µg/mL (≈ 22.6 µM); in that of `O=C(NC1C2CC3CC(C2)CC1C3)c1ccc(-c2ccc(Cl)cc2)o1` (stereo unspecified), 10.9 µg/mL (≈ 30.8 µM); in that of `CCOC(=O)c1ccc(NC(=S)NCCN2CCc3ccccc3C2)cc1`, 31 µg/mL (≈ 80.8 µM). In the case of `N#Cc1cc2c(cc1C#N)OC(c1ccccc1)=NN2` it was 16.4 µg/mL (≈ 63.1 µM); in that of `Cc1cc(Nc2cccc(Cl)c2)nc(NCc2ccccc2)n1`, 1.39 µg/mL (≈ 4.28 µM); in that of `CC(=O)N1CCN(c2ccc(NC(=S)NC(=O)c3cc4ccccc4o3)cc2)CC1`, 2.74 µg/mL (≈ 6.49 µM). Consider `COc1cc(CNc2nccs2)cc(Br)c1OCc1ccc(F)cc1`, for which the IC50 was 11.5 µg/mL (≈ 27.1 µM).

Consider `CCCCn1c(=N)n(CC(O)COc2cccc(C)c2)c2ccccc21` (stereo unspecified), for which the IC50 was 6.05 µg/mL (≈ 17.1 µM).

On to `Cc1ccc(Cl)cc1NC(=O)CC(O)(C(F)(F)F)C(F)(F)F`, for which the IC50 was 7.04 µg/mL (≈ 20.1 µM). Consider `CC(C)Oc1ccc(Nc2ncnc3ccc(Br)cc23)cc1`, for which the IC50 was 2.5 µg/mL (≈ 6.98 µM). In the case of `CSc1nc(C)cc(OCC(=O)Nc2ccc(Cl)cc2)n1` it was 6.69 µg/mL (≈ 20.7 µM); in that of `COC(=O)c1ccc(COC(=O)c2ccccc2Cl)cc1`, 1.69 µg/mL (≈ 5.55 µM). Turning to `O=C(Nc1ccccc1Cl)c1cc2cc(Cl)cc(Cl)c2oc1=O`, the IC50 was > 50 µg/mL (inactive).

`CCOc1cccc(N2C(=O)CC(S/C(N)=N/N=C(\C)c3ccc(Cl)s3)C2=O)c1` (stereo unspecified): the IC50 is 2.62 µg/mL (≈ 5.81 µM). The result for `COc1cc(/C=C/[N+](=O)[O-])cc(Cl)c1OCc1ccccc1C#N` reads 17.9 µg/mL (≈ 51.8 µM); that for `C=CCOc1c(Cl)cc(/C=C/[N+](=O)[O-])cc1OCC`, 23.4 µg/mL (≈ 82.5 µM). In the case of `CC(C)(C)c1ccc(C(=O)N2CCC(C(=O)N3CCN(c4cccc(Cl)c4)CC3)CC2)cc1` it was > 50 µg/mL (inactive). In the case of `O=C(c1ccc2ccccc2c1)N(C1CCCCC1)C1CCCCC1` it was 43 µg/mL (≈ 128 µM); in that of `CN(C)CC1CC(C(C)(C)C)CCC1=O` (stereo unspecified), 2.45 µg/mL (≈ 11.6 µM); in that of `COc1cccc(CN2CCN(C(=O)Nc3ccc(Cl)c(Cl)c3)CC2)c1`, 5.13 µg/mL (≈ 13 µM). For `O=C(CNCCN1CCOCC1)Nc1sc2c(c1C(=O)Nc1ccccc1)CCC2`, the IC50 was 2.12 µg/mL (≈ 4.95 µM). In the case of `Cc1cc(NC(=O)CSc2nnnn2-c2ccccc2C)no1` it was 1.41 µg/mL (≈ 4.27 µM); in that of `CCC(C)c1ccccc1OCC(=O)Nc1cccc(-c2nnc(-c3ccco3)o2)c1` (stereo unspecified), 8.07 µg/mL (≈ 19.3 µM). The result for `CC(=O)C1=C(C)NC(SCC(=O)Nc2nc3ccccc3s2)=C(C#N)C1c1ccc(Cl)cc1` (stereo unspecified) reads 4.1 µg/mL (≈ 8.28 µM); that for `COc1ccc(C(=O)NC(=S)Nc2ccc(N3CCCCC3)cc2)cc1OC`, 1.38 µg/mL (≈ 3.45 µM). `CCC(=O)Oc1cccc2ccc(/C=C/c3ccc4c(c3)OCO4)nc12`: the IC50 is 0.17 µg/mL (≈ 0.489 µM). Regarding `CC(C)COCc1ccc(O)c2ncccc12`, the IC50 is > 50 µg/mL (inactive). In the case of `Cc1ccc(NC(=O)c2cc([N+](=O)[O-])ccc2O)cc1` it was 14.3 µg/mL (≈ 52.4 µM).

As for `CCOC(=O)c1c(C)n(-c2ccc(C)cc2)c2ccc(O)c(CN(C)C)c12`, the IC50 was 10.9 µg/mL (≈ 29.6 µM). In the case of `COc1cccc(N2CCN(C(=O)Nc3ccc(Cl)c(Cl)c3)CC2)c1` it was 9.41 µg/mL (≈ 24.7 µM); in that of `COc1ccc(C(=O)/C=C/Nc2cc(Cl)ccc2O)cc1OC`, 4.6 µg/mL (≈ 13.8 µM).
